This passage reports Kd results from paper PMC6657890 (PLoS ONE, 2019).

In the assay the target is T1, CV-IIL (Chromobacterium violaceum, UniProt Q7NX84).
T1 construct: gene CV_1744
It is filed as binding.

SMILES strings stand for the structures.

T1 sequence (Q7NX84 2-114 limits assumed): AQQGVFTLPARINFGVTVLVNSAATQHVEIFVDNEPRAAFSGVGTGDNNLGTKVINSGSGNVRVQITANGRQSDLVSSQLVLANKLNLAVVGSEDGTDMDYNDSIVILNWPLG

For the compound `OC[C@H]1OC(O)[C@@H](O)[C@@H](O)[C@@H]1O` (stereo partly drawn) [D-mannose], the dissociation constant (Kd) (in general, the constant that tells how readily two partners part at equilibrium) amounted to 25.6 µM. In the case of `C[C@@H]1OC(O)[C@@H](O)[C@H](O)[C@@H]1O` (stereo partly drawn) [L-fucose], the affinity, expressed as Kd, was 8.2 µM.
